Experimental data taken from publication PMC4530782 (Bioorganic & medicinal chemistry letters, 2011).

Assays:
[1] = system: Stat3 phosphorylation in JJN3 cells; type: cell-based, human; settings: 24 hrs
Water solubility = type: physicochemical; settings: compared with 7 and 17e
[2] = system: Stat3 phosphorylation in MDA-468 cells; type: cell-based, human; settings: 24 hrs
Stat1 = settings: read-out: Stat1 Ki, fluorescence polarization; earlier work on 7; cited from earlier work
Stat5 = settings: read-out: Stat5 Ki, fluorescence polarization; earlier work on 7; cited from earlier work
breast tumor xenografts = settings: cited from earlier work
[3] = system: JJN3 (multiple myeloma) cancer cells; test: Whole cell MTS cytotoxicity assay, JJN3; type: cell-based; settings: Homo sapiens, JJN-3, 72 h, read-out: EC50 JJN3
[4] = system: NIH3T3, TE-71 and HPDEC cells; settings: cited from earlier work
[5] = system: MDA-468 (breast) cancer cells; test: Whole cell MTS cytotoxicity assay, MDA-468; type: cell-based; settings: Homo sapiens, 72 h, read-out: EC50 MDA-468
[6] = system: DU145 (prostate) cancer cells; test: Whole cell MTS cytotoxicity assay, DU145; type: cell-based; settings: Homo sapiens, DU-145, 72 h, read-out: EC50 DU145

Compound	levels of Stat3 downstream targets (cMYC, Bcl-xL, Survivin) ([1]; immunoblotting)	water solubility (in words) (Water solubility)	levels of Stat3 downstream targets (cMYC, Bcl-xL, Survivin) ([2]; immunoblotting)	Ki (Stat1) [µM]	Ki (Stat5) [µM]	concentration at which Stat3 phosphorylation is inhibited ([1]; Western blot)	in vivo effect on breast tumor xenografts (breast tumor xenografts)	EC50 [3] [µM]	effects against 'healthy' cells lacking activated Stat3 [4]	concentration at which Stat3 phosphorylation is inhibited ([2]; Western blot)	EC50 [5] [µM]	EC50 [6] [µM]
CN(CC(=O)N(Cc1ccc(C2CCCCC2)cc1)c1ccc(C(=O)O)c(O)c1)S(=O)(=O)c1c(F)c(F)c(F)c(F)c1F [17o]	effectively reduced levels of Stat3 downstream targets	much improved water solubility over both 7 and 17e	effectively reduced levels of Stat3 downstream targets	–	–	–	–	–	–	–	–	–
Cc1ccc(S(=O)(=O)N(C)CC(=O)N(Cc2ccc(C3CCCCC3)cc2)c2ccc(C(=O)O)c(O)c2)cc1 [compound 7]	–	–	–	> 25	> 25	approximately 100 μM	suppression of breast tumor xenografts	93.3 ± 15.8	negligible effects	approximately 100 μM	17 ± 4.4	37.2 ± 12.4
